Source: ChEMBL document CHEMBL1139660, “Imidazo[1,2-b][1,2,4]triazines as alpha2/alpha3 subtype selective GABA A agonists for the treatment of anxiety” (Bioorg Med Chem Lett, 2006)

Experiments:
[1] = target: T1, GABA-A receptor; alpha-1/beta-3/gamma-2 (Homo sapiens, UniProt P14867+P18507+P28472); assay: Displacement of [3H]Ro 15-1788 from recombinant human GABA-Aalpha1 receptor plus beta3gamma2 expressed in mouse L(tk-) cells; format: cell-based
T1 sequence (P14867 whole entry): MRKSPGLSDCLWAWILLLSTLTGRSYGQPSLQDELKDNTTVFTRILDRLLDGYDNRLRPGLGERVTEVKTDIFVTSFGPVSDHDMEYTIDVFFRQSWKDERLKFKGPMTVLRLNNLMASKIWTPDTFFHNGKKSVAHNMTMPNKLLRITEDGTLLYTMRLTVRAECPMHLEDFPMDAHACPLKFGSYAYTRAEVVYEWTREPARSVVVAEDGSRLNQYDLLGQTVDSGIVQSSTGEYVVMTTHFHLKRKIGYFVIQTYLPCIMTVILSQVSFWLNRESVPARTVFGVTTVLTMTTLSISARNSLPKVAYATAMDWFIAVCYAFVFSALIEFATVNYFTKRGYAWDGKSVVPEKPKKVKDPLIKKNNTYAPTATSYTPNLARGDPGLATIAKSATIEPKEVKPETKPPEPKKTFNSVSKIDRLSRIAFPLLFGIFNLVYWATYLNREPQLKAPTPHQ
T1 sequence (P18507 whole entry): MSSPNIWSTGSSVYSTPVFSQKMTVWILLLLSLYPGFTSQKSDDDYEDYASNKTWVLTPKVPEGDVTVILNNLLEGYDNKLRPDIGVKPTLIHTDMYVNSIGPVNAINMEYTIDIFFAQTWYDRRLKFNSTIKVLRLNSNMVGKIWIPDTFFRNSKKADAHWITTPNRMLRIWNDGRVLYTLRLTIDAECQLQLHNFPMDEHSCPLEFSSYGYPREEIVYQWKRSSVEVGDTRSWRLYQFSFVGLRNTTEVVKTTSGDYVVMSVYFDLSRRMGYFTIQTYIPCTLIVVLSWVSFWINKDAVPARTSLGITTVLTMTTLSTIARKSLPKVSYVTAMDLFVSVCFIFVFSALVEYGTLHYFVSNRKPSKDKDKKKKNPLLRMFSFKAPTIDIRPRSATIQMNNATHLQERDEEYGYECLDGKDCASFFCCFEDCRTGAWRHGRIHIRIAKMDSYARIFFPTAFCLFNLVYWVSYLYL
T1 sequence (P28472 whole entry): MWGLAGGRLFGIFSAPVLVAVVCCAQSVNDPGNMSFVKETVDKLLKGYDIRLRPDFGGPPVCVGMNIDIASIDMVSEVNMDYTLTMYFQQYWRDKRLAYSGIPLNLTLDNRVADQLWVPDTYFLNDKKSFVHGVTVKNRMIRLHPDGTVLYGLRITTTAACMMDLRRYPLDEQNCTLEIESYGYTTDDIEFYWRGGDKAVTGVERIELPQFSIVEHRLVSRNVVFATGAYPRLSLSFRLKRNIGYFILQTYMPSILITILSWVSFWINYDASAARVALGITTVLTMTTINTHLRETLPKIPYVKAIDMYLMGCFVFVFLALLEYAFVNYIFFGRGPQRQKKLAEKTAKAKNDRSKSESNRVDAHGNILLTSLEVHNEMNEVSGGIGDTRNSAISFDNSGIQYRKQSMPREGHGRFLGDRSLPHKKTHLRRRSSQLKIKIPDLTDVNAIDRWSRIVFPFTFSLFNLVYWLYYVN

[2] = target: T2, GABA-A receptor; alpha-3/beta-3/gamma-2 (Homo sapiens, UniProt P18507+P28472+P34903); assay: Displacement of [3H]Ro 15-1788 from recombinant human GABA-Aalpha3 receptor plus beta-3-gamma-2 expressed in L(tk-) cells; format: cell-based
T2 sequence (P18507 whole entry): T1 sequence (P18507 whole entry)
T2 sequence (P28472 whole entry): T1 sequence (P28472 whole entry)
T2 sequence (P34903 whole entry): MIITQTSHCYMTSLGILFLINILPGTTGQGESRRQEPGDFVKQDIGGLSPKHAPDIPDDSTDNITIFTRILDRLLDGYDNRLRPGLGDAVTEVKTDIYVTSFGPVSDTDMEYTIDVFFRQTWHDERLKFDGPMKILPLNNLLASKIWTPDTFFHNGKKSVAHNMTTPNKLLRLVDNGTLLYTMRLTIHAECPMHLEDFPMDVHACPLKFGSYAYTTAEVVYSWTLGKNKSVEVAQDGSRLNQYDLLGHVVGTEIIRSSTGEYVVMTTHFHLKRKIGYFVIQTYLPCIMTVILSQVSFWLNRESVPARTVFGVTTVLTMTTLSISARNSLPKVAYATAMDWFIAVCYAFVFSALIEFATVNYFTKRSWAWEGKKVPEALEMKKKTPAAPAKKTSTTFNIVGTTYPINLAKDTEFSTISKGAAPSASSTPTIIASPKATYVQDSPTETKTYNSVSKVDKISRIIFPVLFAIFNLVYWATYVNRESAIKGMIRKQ

[3] = target: T3, GABA-A receptor; alpha-1/beta-3/gamma-2 (Homo sapiens) (UniProt P14867+P18507+P28472); assay: Efficacy against recombinant human GABA-Aalpha1 receptor plus beta-3-gamma-2 expressed in L(tk-) cells by whole cell patch clamp method; format: functional, cell-based
[4] = target: T4, GABA-A receptor; alpha-3/beta-3/gamma-2 (Homo sapiens) (UniProt P18507+P28472+P34903); assay: Efficacy against recombinant human GABA-Aalpha3 receptor plus beta-3-gamma-2 expressed in L(tk-) cells by whole cell patch clamp method relative to chlordiazepoxide; format: functional, cell-based
[5] = target: T5, GABA-A receptor; alpha-5/beta-3/gamma-2 (Homo sapiens, UniProt P18507+P28472+P31644); assay: Displacement of [3H]Ro 15-1788 from recombinant human GABA-Aalpha5 receptor plus beta-3-gamma-2 expressed in L(tk-) cells; format: cell-based
T5 sequence (P18507 whole entry): T1 sequence (P18507 whole entry)
T5 sequence (P28472 whole entry): T1 sequence (P28472 whole entry)
T5 sequence (P31644 whole entry): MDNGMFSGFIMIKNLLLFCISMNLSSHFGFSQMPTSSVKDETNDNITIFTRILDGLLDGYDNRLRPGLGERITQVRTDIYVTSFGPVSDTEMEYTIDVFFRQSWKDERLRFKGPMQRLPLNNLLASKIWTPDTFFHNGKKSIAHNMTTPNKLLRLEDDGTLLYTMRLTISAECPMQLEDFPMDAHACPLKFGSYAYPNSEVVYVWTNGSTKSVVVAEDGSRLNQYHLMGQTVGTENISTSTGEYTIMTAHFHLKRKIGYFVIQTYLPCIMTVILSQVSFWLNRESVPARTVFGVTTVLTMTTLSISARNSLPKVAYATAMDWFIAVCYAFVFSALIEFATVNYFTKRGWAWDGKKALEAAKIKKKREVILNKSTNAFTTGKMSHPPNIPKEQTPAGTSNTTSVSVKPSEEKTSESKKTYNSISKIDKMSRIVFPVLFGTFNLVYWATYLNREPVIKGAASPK

[6] = target: T6, GABA-A receptor; alpha-2/beta-3/gamma-2 (Homo sapiens, UniProt P18507+P28472+P47869); assay: Displacement of [3H]Ro 15-1788 from recombinant human GABA-Aalpha2 receptor plus beta-3-gamma-2 expressed in mouse L(tk-) cells; format: cell-based
T6 sequence (P18507 whole entry): T1 sequence (P18507 whole entry)
T6 sequence (P28472 whole entry): T1 sequence (P28472 whole entry)
T6 sequence (P47869 whole entry): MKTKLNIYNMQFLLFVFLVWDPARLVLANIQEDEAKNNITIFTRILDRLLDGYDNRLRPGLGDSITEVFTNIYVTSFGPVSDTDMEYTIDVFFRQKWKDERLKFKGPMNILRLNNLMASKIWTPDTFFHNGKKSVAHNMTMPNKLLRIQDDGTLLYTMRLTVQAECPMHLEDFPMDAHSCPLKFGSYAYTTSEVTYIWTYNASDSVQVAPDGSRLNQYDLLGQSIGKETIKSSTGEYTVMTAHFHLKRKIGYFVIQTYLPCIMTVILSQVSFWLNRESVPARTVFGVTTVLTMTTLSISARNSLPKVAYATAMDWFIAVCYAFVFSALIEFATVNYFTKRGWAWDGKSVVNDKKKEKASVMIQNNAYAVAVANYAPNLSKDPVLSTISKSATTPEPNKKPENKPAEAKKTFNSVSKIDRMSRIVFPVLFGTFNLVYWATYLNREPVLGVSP

[7] = target: T3, GABA-A receptor; alpha-1/beta-3/gamma-2 (Homo sapiens); assay: Efficacy against recombinant human GABA-Aalpha1 receptor plus beta-3-gamma-2 expressed in L(tk-) cells by modulation of chloride ion flux relative to chlordiazepoxide; format: cell-based
[8] = target: T4, GABA-A receptor; alpha-3/beta-3/gamma-2 (Homo sapiens); assay: Efficacy against recombinant human GABA-Aalpha3 receptor plus beta-3-gamma-2 expressed in L(tk-) cells by modulation of chloride ion flux relative to chlordiazepoxide; format: functional, cell-based
Rattus norvegicus = assay: Plasma clearance in Sprague-Dawley rat at 1 mg/kg, iv or 1 mg/kg, po; format: organism-based
[9] = Volume of distribution in Sprague-Dawley rat at 1 mg/kg, iv or 1 mg/kg, po; format: ADME, organism-based; settings: in vivo, read-out: Vdss
[10] = Oral bioavailability in Beagle dog at 1 mg/kg, iv or 1 mg/kg, po; format: ADME, organism-based, Canis lupus familiaris; settings: in vivo
[11] = Plasma clearance in Beagle dog at 1 mg/kg, iv or 1 mg/kg, po; format: ADME, organism-based, Canis lupus familiaris
[12] = Half life in Beagle dog at 1 mg/kg, iv or 1 mg/kg, po; format: ADME, organism-based, Canis lupus familiaris; settings: in vivo
[13] = Volume of distribution in Beagle dog at 1 mg/kg, iv or 1 mg/kg, po; format: ADME, organism-based, Canis lupus familiaris; settings: in vivo, read-out: Vdss
[14] = target: GABA-A receptor; alpha-2/beta-3/gamma-2 (Homo sapiens) (UniProt P18507+P28472+P47869); assay: Efficacy against recombinant human GABA-Aalpha2 receptor plus beta-3-gamma-2 expressed in L(tk-) cells by whole cell patch clamp method relative to chlordiazepoxide; format: functional, cell-based
[15] = target: GABA-A receptor; alpha-5/beta-3/gamma-2 (Homo sapiens) (UniProt P18507+P28472+P31644); assay: Efficacy against recombinant human GABA-Aalpha5 receptor plus beta3gamma2 expressed in L(tk-) cells by whole cell patch clamp method relative to chlordiazepoxide; format: functional, cell-based

| SMILES | Ki [1] | Ki [2] | Efficacy [3] | Efficacy [4] | Ki [5] | Ki [6] | Efficacy [7] | Efficacy [8] | CL (mL.min-1.kg-1) (Rattus norvegicus) | Vd [9] | bioavailability [10] | clearance [11] | half-life [12] | Vd [13] | Efficacy [14] | Efficacy [15] |
| --- | --- | --- | --- | --- | --- | --- | --- | --- | --- | --- | --- | --- | --- | --- | --- | --- |
| CC(C)(O)c1cnn2c(-c3ccc(F)c(-c4ncncc4C#N)c3)cnc2n1 | 0.67 nM | 3.3 nM | 0.01 | 0.34 |  |  |  |  |  |  |  |  |  |  |  |  |
| CC(C)(O)c1cnn2c(-c3ccc(F)c(-c4ccc(F)cn4)c3)cnc2n1 | 1.45 nM | 2.77 nM | 0.15 | 0.5 | 1.24 nM | 2.3 nM |  |  |  |  |  |  |  |  |  |  |
| CC(C)(O)c1ccn2c(-c3ccc(F)c(-c4cccnc4)c3)cnc2n1 |  |  | 0.05 | 0.53 |  |  | 0.06 | 0.5 | 9.1 | 1 L/kg | 46% | 8.1 mL/min/kg | 60 min | 0.6 L/kg |  |  |
| CC(C)(O)c1ccn2c(-c3ccc(F)c(-c4ccc(F)cn4)c3)cnc2n1 | 1.6 nM | 1.94 nM | 0.4 |  | 0.42 nM |  | 0.38 | 0.57 |  |  |  |  |  |  |  |  |
| CC(C)(O)c1ccn2c(-c3ccc(F)c(-c4ccncc4C#N)c3)cnc2n1 | 0.6 nM | 0.28 nM |  |  | 0.14 nM |  | 0.3 | 0.59 |  |  |  |  |  |  |  |  |
| CC(C)(O)c1ccn2c(-c3ccc(F)c(-c4ccncc4)c3)cnc2n1 | 0.68 nM | 2.25 nM | 0.42 |  | 0.31 nM |  | 0.18 | 0.47 |  |  |  |  |  |  |  |  |
| CC(C)(O)c1ccn2c(-c3ccc(F)c(-c4ncccc4C#N)c3)cnc2n1 | 1.43 nM | 3.64 nM |  |  | 0.67 nM |  | 0.26 | 0.52 |  |  |  |  |  |  |  |  |
| CC(C)(O)c1ccn2c(-c3ccc(F)c(-c4ncccc4F)c3)cnc2n1 | 0.8 nM | 0.42 nM |  |  | 1.24 nM |  | 0.44 | 0.68 |  |  |  |  |  |  |  |  |
| CC(C)(O)c1cnn2c(-c3ccc(F)c(-c4cccnc4)c3)cnc2n1 | 0.81 nM | 1.63 nM | 0 | 0.24 | 0.5 nM |  |  |  |  |  |  |  |  |  |  |  |
| CC(C)(O)c1cnn2c(-c3ccc(F)c(-c4ccncc4)c3)cnc2n1 | 0.55 nM | 0.52 nM | 0.06 |  | 0.5 nM | 0.92 nM |  |  |  |  |  |  |  |  |  |  |
| CC(C)(O)c1ccn2c(-c3ccc(F)c(-c4ncc(F)cc4F)c3)cnc2n1 | 1.79 nM | 3.76 nM |  |  | 1.13 nM |  | 0.18 | 0.21 |  |  |  |  |  |  |  |  |
| CC(C)(O)c1cnn2c(-c3ccc(F)c(-c4ncccc4F)c3)cnc2n1 | 2.01 nM | 3.42 nM | 0.24 | 0.52 | 1.57 nM |  |  |  |  |  |  |  |  |  |  |  |
| CC(C)(O)c1cnn2c(-c3ccc(F)c(-c4ccncc4C#N)c3)cnc2n1 | 0.76 nM | 1.06 nM | 0 | 0.37 | 0.32 nM | 1.54 nM |  |  |  |  |  |  |  |  | 0.23 | 0.41 |
